Laboratory results published in patent US8183248B2, “Substituted pyrrolo[2,3-d]pyrimidines and compositions as protein kinase inhibitors” (IRM LLC, priority 2005, dated 2012).
pIC50: −log10 of the molar value.

What was measured:
[1] = molecular target: T1, G250E Bcr-abl (Ba/F3 cells) (Homo sapiens, UniProt P00519, G250E); assay: Proliferation of Ba/F3 cells expressing G250E Bcr-abl; assay type: cell-based
T1 construct: expressed in transfected cells; host or cells: Ba/F3 (murine pro-B cells); the other entry of the earlier key: BCR (P11274, Breakpoint cluster region protein)
Description: (§1) 32D-p210 cells are plated into 96 well TC plates at a density of 15,000 cells per well. 50 μL of two fold serial dilutions of the test compound (Cmax is 40 μM) are added to each well (STI571 is included as a positive control). After incubating the cells for 48 hours at 37° C., 5% CO2, 15 μL of MTT (Promega) is added to each well and the cells are incubated for an additional 5 hours. The optical density at 570 nm is quantified spectrophotometrically and IC50 values, the concentration of compound required for 50% inhibition, determined from a dose response curve.
(§2) Compounds of the invention are tested for their antiproliferative effect on Ba/F3 cells expressing either wild type or the mutant forms of BCR-Abl (G250E, E255V, T315I, F317L, M351T) that confers resistance or diminished sensitivity to STI571. The antiproliferative effect of these compounds on the mutant-BCR-Abl expressing cells and on the non transformed cells were tested at 10, 3.3, 1.1 and 0.37 μM as described above (in media lacking IL3). The IC50 values of the compounds lacking toxicity on the untransformed cells were determined from the dose response curves obtained as describe above.

[2] = molecular target: T2, T315I Bcr-abl (Ba/F3 cells) (Homo sapiens, UniProt P00519, T315I); assay: Proliferation of Ba/F3 cells expressing T315I Bcr-abl; assay type: cell-based
T2 construct: expressed in transfected cells; host or cells: Ba/F3 (murine pro-B cells); the other entry of the earlier key: BCR (P11274, Breakpoint cluster region protein)
Description: as §1, §2

FGFR3 = molecular target: T3, FGFR3 (Homo sapiens, UniProt P22607); assay: FGFR3 (Enzymatic Assay); assay type: biochemical
T3 construct: if the value comes from the Ba/F3-TEL-FGFR3 test; If it comes from the purified enzyme, only the vendor's tag
T3 sequence (P22607 whole entry): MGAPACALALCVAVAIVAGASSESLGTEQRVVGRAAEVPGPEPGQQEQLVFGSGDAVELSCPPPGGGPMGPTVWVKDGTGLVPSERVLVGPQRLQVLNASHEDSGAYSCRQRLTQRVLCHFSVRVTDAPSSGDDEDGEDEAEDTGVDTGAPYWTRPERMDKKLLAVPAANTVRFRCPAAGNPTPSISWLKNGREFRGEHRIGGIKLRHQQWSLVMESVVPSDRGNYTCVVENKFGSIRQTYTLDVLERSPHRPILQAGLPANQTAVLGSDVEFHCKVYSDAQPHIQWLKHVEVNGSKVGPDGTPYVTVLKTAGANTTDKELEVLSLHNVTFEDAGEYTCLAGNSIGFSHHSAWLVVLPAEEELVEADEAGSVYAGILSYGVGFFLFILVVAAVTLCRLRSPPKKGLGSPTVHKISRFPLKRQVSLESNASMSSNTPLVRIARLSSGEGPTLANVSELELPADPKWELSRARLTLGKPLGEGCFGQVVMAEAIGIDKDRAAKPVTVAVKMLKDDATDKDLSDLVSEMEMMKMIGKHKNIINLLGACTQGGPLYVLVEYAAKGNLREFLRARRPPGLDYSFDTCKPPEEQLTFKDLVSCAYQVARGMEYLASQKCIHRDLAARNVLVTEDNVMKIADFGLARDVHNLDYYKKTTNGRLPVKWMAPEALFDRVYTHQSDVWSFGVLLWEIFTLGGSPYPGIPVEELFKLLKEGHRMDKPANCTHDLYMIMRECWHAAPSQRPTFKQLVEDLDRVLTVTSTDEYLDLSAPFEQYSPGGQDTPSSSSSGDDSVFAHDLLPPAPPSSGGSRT
Description: Kinase activity assay with purified FGFR3 (Upstate) is carried out in a final volume of 10 μL containing 0.25 μg/mL of enzyme in kinase buffer (30 mM Tris-HCl pH7.5, 15 mM MgCl2, 4.5 mM MnCl2, 15 μM Na3VO4 and 50 μg/mL BSA), and substrates (5 μg/mL biotin-poly-EY(Glu, Tyr) (CIS-US, Inc.) and 3 μM ATP). Two solutions are made: the first solution of 5 μl contains the FGFR3 enzyme in kinase buffer was first dispensed into 384-format ProxiPlate® (Perkin-Elmer) followed by adding […] of compounds dissolved in DMSO, then […] of second solution contains the substrate (poly-EY) and ATP in kinase buffer was added to each wells. The reactions are incubated at room temperature for one hour, stopped by adding 10 μL of HTRF detection mixture, which contains 30 mM Tris-HCl pH7.5, 0.5 M KF, 50 mM ETDA, 0.2 mg/mL BSA, 15 μg/mL streptavidin-XL665 (CIS-US, Inc.) and 150 ng/mL cryptate conjugated anti-phosphotyrosine antibody (CIS-US, Inc.). After one hour of room temperature incubation to allow for streptavidin-biotin interaction, time resolved florescent signals are read on Analyst GT (Molecular Devices Corp.). IC50 values are calculated by […] analysis of the percentage inhibition of each compound at 12 concentrations (1:3 dilution from 50 μM to 0.28 nM).

FLT-3 = FLT-3 (Homo sapiens, UniProt P36888, cells depend on it, form not given); assay: FLT3 (Cellular Assay), Ba/F3-FLT3-ITD proliferation; assay type: cell-based; conditions: read-out: IC50 for FLT-3
B-RAF = B-RAF (Homo sapiens, UniProt P15056); assay: b-Raf Enzymatic Assay; assay type: biochemical
Sequence of B-RAF (P15056 whole entry): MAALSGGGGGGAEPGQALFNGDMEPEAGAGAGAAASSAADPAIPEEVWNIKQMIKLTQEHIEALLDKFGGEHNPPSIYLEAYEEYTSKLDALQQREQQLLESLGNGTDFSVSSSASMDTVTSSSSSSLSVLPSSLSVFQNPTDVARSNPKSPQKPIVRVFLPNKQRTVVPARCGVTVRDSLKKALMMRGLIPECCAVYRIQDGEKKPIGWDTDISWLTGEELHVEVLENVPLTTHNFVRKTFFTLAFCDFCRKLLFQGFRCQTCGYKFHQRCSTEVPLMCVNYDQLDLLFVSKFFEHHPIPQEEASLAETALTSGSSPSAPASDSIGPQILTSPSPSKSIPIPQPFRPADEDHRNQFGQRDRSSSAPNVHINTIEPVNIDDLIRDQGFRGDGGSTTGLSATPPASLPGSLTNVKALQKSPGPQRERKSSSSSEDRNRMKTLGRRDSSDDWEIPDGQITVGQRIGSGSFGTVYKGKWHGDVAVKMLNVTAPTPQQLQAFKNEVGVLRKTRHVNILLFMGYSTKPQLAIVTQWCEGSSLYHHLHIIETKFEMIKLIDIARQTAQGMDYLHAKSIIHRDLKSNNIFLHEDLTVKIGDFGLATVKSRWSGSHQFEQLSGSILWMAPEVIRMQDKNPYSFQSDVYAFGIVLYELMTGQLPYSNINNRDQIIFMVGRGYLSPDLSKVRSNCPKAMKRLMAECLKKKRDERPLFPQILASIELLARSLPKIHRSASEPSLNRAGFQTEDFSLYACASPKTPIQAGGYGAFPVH
Description: Compounds of the invention are tested for their ability to inhibit the activity of b-Raf. The assay is carried out in 384-well MaxiSorp plates (NUNC) with black walls and clear bottom. The substrate, IκBα is diluted in DPBS (1:750) and 15 μl is added to each well. The plates are incubated at 4° C. overnight and washed 3 times with TBST (25 mM Tris, pH 8.0, 150 mM NaCl and 0.05% Tween-20) using the EMBLA plate washer. Plates are blocked by Superblock (15 μl/well) for 3 hours at room temperature, washed 3 times with TBST and pat-dried. Assay buffer containing 20 μM ATP (10 μl) is added to each well followed by 100 nl or 500 nl of compound. B-Raf is diluted in the assay buffer (1 μl into 25 μl) and 10 μl of diluted b-Raf is added to each well (0.4 μg/well). The plates are incubated at room temperature for 2.5 hours. The kinase reaction is stopped by washing the plates 6 times with TBST. Phosph-IκBα (Ser32/36) antibody is diluted in Superblock (1:10,000) and 15 μl is added to each well. The plates are incubated at 4° C. overnight and washed 6 times with TBST. AP-conjugated goat-anti-mouse IgG is diluted in Superblock (1:1,500) and 15 μl is added to each well. Plates are incubated at room temperature for 1 hour and washed 6 times with TBST. […] Plates are read on Acquest or Analyst GT using a Fluorescence Intensity Program (Excitation 455 nm, Emission 580 nm).

pIC50 [1]: > 8.30
pIC50 [2]: > 8.30
pIC50 (FGFR3): 7.44
GI50 (FLT-3): 15 nM
pIC50 (B-RAF): 7.00
SMILES: CCN1CCN(Cc2ccc(NC(=O)c3ccc(C)c(NC(=O)N(C)c4ncnc5[nH]ccc45)c3)cc2C(F)(F)F)CC1 [Example 4, N-[4-(4-Ethyl-piperazin-1-ylmethyl)-3-trifluoromethyl-phenyl]-4-methyl-3-[3-methyl-3-(7H-pyrrolo[2,3-d]pyrimidin-4-yl)-ureido]-benzamide]
